How the values were obtained:
rgRSV224 virus = experiment: Antiviral activity: rgRSV224 (GFP-expressing RSV) replication in HeLa cells, GFP expression measured three days post-virus exposure; assay type: cell-based; conditions: human respiratory syncytial virus, 72 h, read-out: WT activity pEC50 (converted)
Experimental: (§1) Black 96-well clear-bottom microtiter plates (Corning, Amsterdam, The Netherlands) were filled in duplicate using a customized robot system with serial 4-fold dilutions of compound in a final volume of 50 μl culture medium [RPMI medium without phenol red, 10% FBS, 0.04% gentamycin (50 mg/ml) and 0.5% DMSO]. Then, 100 μl of a HeLa cell suspension (5×10^4 cells/ml) in culture medium was added to each well followed by the addition of 50 μl rgRSV224 (MOI=0.02) virus in culture medium using a multidrop dispenser (Thermo Scientific, Erembodegem, Belgium). rgRSV224 virus is an engineered virus that includes an additional GFP gene (Hallak et al, 2000) and was in-licensed from the NIH (Bethesda, Md., USA). Medium, virus- and mock-infected controls were included in each test. Cells were incubated at 37° C. in a 5% CO2 atmosphere. Three days post-virus exposure, viral replication was quantified by measuring GFP expression in the cells by a MSM laser microscope (Tibotec, Beerse, Belgium). The EC50 was defined as the 50% inhibitory concentration for GFP expression. In parallel, compounds were incubated for three days in a set of white 96-well microtitier plates (Corning) and the cytotoxicity of compounds in HeLa cells was determined by measuring the ATP content of the cells using the ATPlite kit (PerkinElmer, Zaventem, Belgium) according to the manufacturer's instructions. The CC50 was defined as the 50% concentration for cytotoxicity.

in vitro = assay type: cell-based; conditions: human
Experimental: as §1

SMILES | EC50 (rgRSV224 virus) [nM] | CC50 at 3 days (in vitro) [nM] | melting point [°C]
CC(C)(C)OC(=O)N1CC(n2c(=O)n(Cc3cc4cc(Cl)ccc4n3CCCS(C)(=O)=O)c3cnccc32)C1 [Compound P1, tert-butyl-3-(3-((5-chloro-1-(3-(methylsulfonyl)propyl)-1H-indol-2-yl)methyl)-2-oxo-2,3-dihydro-1H-imidazo[4,5-c]pyridin-1-yl)azetidine-1-carboxylate] | 5.01 | 50100 | 195
Cn1ccc(-n2c(=O)n(Cc3cc4cc(Cl)ccc4n3CCCC#N)c3cnccc32)n1 [Compound P36, 4-(5-chloro-2-((1-(1-methyl-1H-pyrazol-3-yl)-2-oxo-1H-imidazo[4,5-c]pyridin-3(2H)-yl)methyl)-1H-indol-1-yl)butanenitrile] | 1.58 | 63100 | 244
COc1ccc(-n2c(=O)n(Cc3cc4cc(Cl)ccc4n3CCCCF)c3cnccc32)cc1 [Compound P32, 3-((5-chloro-1-(4-fluorobutyl)-1H-indol-2-yl)methyl)-1-(4-methoxy-phenyl)-1H-imidazo[4,5-c]pyridin-2(3H)-one] | 3.98 | 79400 | 163
O=c1n(Cc2cc3cc(Cl)ccc3n2CCCCF)c2cnccc2n1-c1ccc(Cl)cc1 [Compound P34, 3-((5-chloro-1-(4-fluorobutyl)-1H-indol-2-yl)methyl)-1-(4-chlorophenyl)-1H-imidazo[4,5-c]pyridin-2(3H)-one] | 31.6 | > 100000 | 168
CS(=O)(=O)CCCn1c(Cn2c(=O)n(C3CN(S(C)(=O)=O)C3)c3ccncc32)cc2cc(Cl)ccc21 [Compound P5, 3-((5-chloro-1-(3-(methylsulfonyl)propyl)-1H-indol-2-yl)methyl)-1-(1-(methylsulfonyl)azetidin-3-yl)-1H-imidazo[4,5-c]pyridin-2(3H)-one] | 1.58 | 100000 | 240
Cn1ccc(-n2c(=O)n(Cc3cc4cc(Cl)ccc4n3CCCCF)c3cnccc32)n1 [Compound P38, 3-((5-chloro-1-(4-fluorobutyl)-1H-indol-2-yl)methyl)-1-(1-methyl-1H-pyrazol-3-yl)-1H-imidazo[4,5-c]pyridin-2(3H)-one] | 1.58 | > 100000 | 169.3
O=c1n(Cc2nc3nc(Cl)ccc3n2CCCCF)c2cnccc2n1-c1nccs1 | – | – | 238
O=c1n(Cc2cc3cc(Cl)ccc3n2CCCCF)c2cnccc2n1-c1nccs1 [Compound P11, 3-((5-chloro-1-(4-fluorobutyl)-1H-indol-2-yl)methyl)-1-(thiazol-2-yl)-1H-imidazo[4,5-c]pyridin-2(3H)-one] | 12.6 | > 25100 | 240
N#CCCCn1c(Cn2c(=O)n(-c3ncco3)c3ccncc32)cc2cc(Cl)ccc21 [Compound P37, 4-(5-chloro-2-((1-(oxazol-2-yl)-2-oxo-1H-imidazo[4,5-c]pyridin-3(2H)-yl)methyl)-1H-indol-1-yl)butanenitrile] | 1.58 | > 100000 | 234
CC(C)CCn1c(Cn2c(=O)n(-c3nccs3)c3ccc(F)cc32)nc2nc(Cl)ccc21 [Compound P25, 3-((5-chloro-1-isopentyl-1H-imidazo[4,5-b]pyridin-2-yl)methyl)-5-fluoro-1-(thiazol-2-yl)-1H-benzo[d]imidazol-2(3H)-one] | 15.8 | > 50100 | 264.42
CC(C)CCn1c(Cn2c(=O)n(-c3nccs3)c3ccncc32)nc2nc(Cl)ccc21 [Compound P22, 3-((5-chloro-1-isopentyl-1H-imidazo[4,5-b]pyridin-2-yl)methyl)-1-(thiazol-2-yl)-1H-imidazo[4,5-c]pyridin-2(3H)-one] | 3.98 | 25100 | 231.23
N#CCCCn1c(Cn2c(=O)n(-c3ccncn3)c3ccncc32)cc2cc(Cl)ccc21 [Compound P24, 4-(5-chloro-2-((2-oxo-1-(pyrimidin-4-yl)-1H-imidazo[4,5-c]pyridin-3(2H)-yl)methyl)-1H-indol-1-yl)butanenitrile] | 10 | > 50100 | 229.17
N#CCCCn1c(Cn2c(=O)n(-c3nccs3)c3ccc(F)cc32)cc2cc(Cl)ccc21 [Compound P27, 4-(5-chloro-2-((6-fluoro-2-oxo-3-(thiazol-2-yl)-2,3-dihydro-1H-benzo[d]imidazol-1-yl)methyl)-1H-indol-1-yl)butanenitrile] | 31.6 | > 100000 | 238.29
COc1ccc(-n2c(=O)n(Cc3cc4cc(Cl)ccc4n3CCCC#N)c3cnccc32)cc1OC [Compound P19, 4-(5-chloro-2-((1-(3,4-dimethoxyphenyl)-2-oxo-1H-imidazo[4,5-c]pyridin-3(2H)-yl)methyl)-1H-indol-1-yl)butanenitrile] | 0.126 | > 100000 | 176.51
CC(=O)N1CC(n2c(=O)n(Cc3cc4cc(Cl)ccc4n3CCCS(C)(=O)=O)c3cnccc32)C1 [Compound P6, 1-(1-acetylazetidin-3-yl)-3-((5-chloro-1-(3-(methylsulfonyl)propyl)-1H-indol-2-yl)methyl)-1H-imidazo[4,5-c]pyridin-2(3H)-one] | 3.98 | > 25100 | 252
COc1ccc(-n2c(=O)n(Cc3cc4cc(Cl)ccc4n3CCCC#N)c3cnccc32)c(C)c1 [Compound P20, 4-(5-chloro-2-((1-(4-methoxy-2-methylphenyl)-2-oxo-1H-imidazo[4,5-c]pyridin-3(2H)-yl)methyl)-1H-indol-1-yl)butanenitrile] | 0.398 | > 100000 | 172.59
COc1ccc(-n2c(=O)n(Cc3cc4cc(Cl)ccc4n3CCCS(C)(=O)=O)c3cnccc32)cc1 [Compound P35, 3-((5-chloro-1-(3-(methylsulfonyl)propyl)-1H-indol-2-yl)methyl)-1-(4-methoxyphenyl)-1H-imidazo[4,5-c]pyridin-2(3H)-one] | 0.316 | 31600 | 215
CC(C)(C)n1c(=O)n(Cc2cc3cc(Cl)ccc3n2CCCS(C)(=O)=O)c2cnccc21 [Compound P8, 1-tert-butyl-3-((5-chloro-1-(3-(methylsulfonyl)propyl)-1H-indol-2-yl)methyl)-1H-imidazo[4,5-c]pyridin-2(3H)-one] | 2.51 | 39800 | 226
CC(C)CCn1c(Cn2c(=O)n(-c3ccncc3F)c3ccncc32)nc2nc(Cl)ccc21 [Compound P26, 3-((5-chloro-1-isopentyl-1H-imidazo[4,5-b]pyridin-2-yl)methyl)-1-(3-fluoropyridin-4-yl)-1H-imidazo[4,5-c]pyridin-2(3H)-one] | 25.1 | > 100000 | 123.79
N#CCCCn1c(Cn2c(=O)n(-c3ccc(Cl)cc3)c3ccncc32)cc2cc(Cl)ccc21 [Compound P39, 4-(5-chloro-2-((1-(4-chlorophenyl)-2-oxo-1H-imidazo[4,5-c]pyridin-3(2H)-yl)methyl)-1H-indol-1-yl)butanenitrile] | 3.98 | 25100 | 210.8
CC(C)(C)OC(=O)N1CC(n2c(=O)n(Cc3cc4cc(Cl)ccc4n3CCCS(C)(=O)=O)c3cc(F)ccc32)C1 [Compound P2, tert-butyl 3-(3-((5-chloro-1-(3-(methylsulfonyl)propyl)-1H-indol-2-yl)methyl)-5-fluoro-2-oxo-2,3-dihydro-1H-benzo[d]imidazol-1-yl)azetidine-1-carboxylate] | 12.6 | 10000 | 185
CC1(n2c(=O)n(Cc3cc4cc(Cl)ccc4n3CCCS(C)(=O)=O)c3cnccc32)CC1 [Compound P7, 3-((5-chloro-1-(3-(methylsulfonyl)propyl)-1H-indol-2-yl)methyl)-1-(1-methylcyclopropyl)-1H-imidazo[4,5-c]pyridin-2(3H)-one] | 0.501 | 50100 | –
CS(=O)(=O)CCCn1c(Cn2c(=O)n(C3CNC3)c3ccncc32)cc2cc(Cl)ccc21 [Compound P4, 1-(azetidin-3-yl)-3-((5-chloro-1-(3-(methylsulfonyl)propyl)-1H-indol-2-yl)methyl)-1H-imidazo[4,5-c]pyridin-2(3H)-one] | 31.6 | > 100000 | –
N#CCCCn1c(Cn2c(=O)n(-c3ccncc3)c3ccncc32)cc2cc(Cl)ccc21 [Compound P48, 4-(5-chloro-2-((2-oxo-1-(pyridin-4-yl)-1H-imidazo[4,5-c]pyridin-3(2H)-yl)methyl)-1H-indol-1-yl)butanenitrile] | 2.51 | > 100000 | –
CS(=O)(=O)CCCn1c(Cn2c(=O)n(C3CNC3)c3ccc(F)cc32)cc2cc(Cl)ccc21 [Compound P3, 1-(azetidin-3-yl)-3-((5-chloro-1-(3-(methylsulfonyl)propyl)-1H-indol-2-yl)methyl)-5-fluoro-1H-benzo[d]imidazol-2(3H)-one] | 100 | 12600 | –

— US9845321B2, “1,3-dihydro-2H-benzimidazol-2-one derivatives substituted with heterocycles as respiratory syncytial virus antiviral agents” (JANSSEN SCIENCES IRELAND UC, priority 2012, dated 2017)
